Reference: patent US10238743B2 (Merck Sharp & Dohme Corp., priority 2014, dated 2019)

Key:
[1] = target: purified human autoBACE-2 (Homo sapiens (Human), UniProt Q9Y5Z0); assay: BACE-2 Assay (BACE-HTRF assay); assay type: biochemical; conditions: Ki calculated from IC50 using the Cheng-Prusoff equation; QSY7-EISEVNLDAEFC-Eu-amide substrate, pH 5.0
Description: Inhibitor IC50s at purified human autoBACE-2 are determined in a time-resolved endpoint proteolysis assay that measures hydrolysis of the QSY7-[…]-Eu-amide FRET peptide substrate (BACE-HTRF assay). […] DMSO is present at 5% final concentration in the assay. Following laser excitation of sample wells at 320 nm, the fluorescence signal at 620 nm is collected for 400 ms following a 50 μs delay on a RUBYstar HTRF plate reader (BMG Labtechnologies). Raw RFU data is normalized to maximum (1.0 nM BACE/DMSO) and minimum (no enzyme/DMSO) RFU values. […] The Ki values are calculated from the IC50 using the Cheng-Prusoff equation.

[2] = target: soluble human BACE1 catalytic domain (Homo sapiens (Human), UniProt P56817); assay: BACE1 HTRF FRET Assay; assay type: biochemical; conditions: Ki calculated from IC50 using the Cheng-Prusoff equation; QSY7-APPswe-Eu substrate, pH 5.0; read-out: BACE-1 Ki
From the text: Na^+-Acetate pH 5.0; 1% Brij-35; Glycerol; Dimethyl Sulfoxide (DMSO); Recombinant human soluble BACE1 catalytic domain (>95% pure); APP Swedish mutant peptide substrate (QSY7-APP^swe-Eu): QSY7-EISEVNLDAEFC-Europium-amide.
A homogeneous time-resolved FRET assay can be used to determine IC50 values for inhibitors of the soluble human BACE1 catalytic domain. This assay monitors the increase of 620 nm fluorescence that resulted from BACE1 cleavage of an APPswedish APP^swe mutant peptide FRET substrate (QSY7-EISEVNLDAEFC-Europium-amide). This substrate contains an N-terminal QSY7 moiety that serves as a quencher of the C-terminal Europium fluorophore (620 nm Em). In the absence of enzyme activity, 620 nm fluorescence is low in the assay and increased linearly over 3 hours in the presence of uninhibited BACE1 enzyme. Inhibition of BACE1 cleavage of the QSY7-APP^swe-Eu substrate by inhibitors is manifested as a suppression of 620 nm fluorescence.
Varying concentrations of inhibitors at 3× the final desired concentration in a volume of 10 ul are preincubated with purified human BACE1 catalytic domain (3 nM in 10 μl) for 30 minutes at 30° C. in reaction buffer containing 20 mM Na-Acetate pH 5.0, 10% glycerol, 0.1% Brij-35 and 7.5% DSMO. Reactions are initiated by addition of 10 μl of 600 nM QSY7-APP^swe-Eu substrate (200 nM final) to give a final reaction volume of 30 μl in a 384 well Nunc HTRF plate. The reactions are incubated at 30° C. for 1.5 hours. The 620 nm fluorescence is then read on a Rubystar HTRF plate reader (BMG Labtechnologies) using a 50 millisecond delay followed by a 400 millisecond acquisition time window. Inhibitor IC50 values are derived from non-linear regression analysis of concentration response curves. Ki values are then calculated from IC50 values using the Cheng-Prusoff equation using a previously determined […] of 8 μM for the QSY7-APP^swe-Eu substrate at BACE1.

soluble human BACE1 catalytic domain, sequence (P56817 75-416): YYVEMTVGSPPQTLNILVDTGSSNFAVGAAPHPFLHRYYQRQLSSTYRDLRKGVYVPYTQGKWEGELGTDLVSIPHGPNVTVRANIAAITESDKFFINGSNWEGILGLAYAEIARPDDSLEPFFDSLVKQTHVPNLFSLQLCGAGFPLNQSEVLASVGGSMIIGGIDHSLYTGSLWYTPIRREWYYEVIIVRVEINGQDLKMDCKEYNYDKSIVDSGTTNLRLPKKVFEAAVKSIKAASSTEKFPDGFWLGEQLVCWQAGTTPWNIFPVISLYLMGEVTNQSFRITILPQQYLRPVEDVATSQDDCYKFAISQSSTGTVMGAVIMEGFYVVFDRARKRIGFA
purified human autoBACE-2, sequence (Q9Y5Z0 63-473 limits assumed): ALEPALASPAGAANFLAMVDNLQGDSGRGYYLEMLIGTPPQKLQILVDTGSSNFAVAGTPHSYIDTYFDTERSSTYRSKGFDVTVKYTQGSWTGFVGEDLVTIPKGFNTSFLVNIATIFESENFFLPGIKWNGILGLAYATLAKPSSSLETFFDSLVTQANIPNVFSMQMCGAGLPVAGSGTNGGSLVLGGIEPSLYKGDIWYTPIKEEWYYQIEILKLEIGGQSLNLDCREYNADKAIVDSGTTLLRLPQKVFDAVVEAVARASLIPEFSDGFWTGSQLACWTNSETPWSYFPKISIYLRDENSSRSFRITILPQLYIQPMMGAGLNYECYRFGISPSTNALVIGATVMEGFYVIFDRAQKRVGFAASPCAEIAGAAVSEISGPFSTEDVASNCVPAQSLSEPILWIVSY

Row | Ki [1] [nM] | Ki [2] [nM] | Compound
1 | 251 | 168 | Cc1cnc(C(=O)Nc2ccc3c(c2)[C@@]2(C)NC(=N)N(C)S(=O)(=O)[C@H]2CCC3)cn1 [Example 24, N-((4aS,11bR)-2-imino-3,11b-dimethyl-4,4-dioxido-1,2,3,4a,5,6,7,11b-octahydrobenzo[6,7]cyclohepta[1,2-e][1,2,4]thiadiazin-10-yl)-5-methylpyrazine-2-carboxamide]
2 | 5 | 7 | CN1C(=N)N[C@]2(C)c3cc(NC(=O)c4ncc(Cl)cc4F)ccc3CCC[C@@H]2S1(=O)=O [Example 25, 5-chloro-3-fluoro-N-((4aS,11bR)-2-imino-3,11b-dimethyl-4,4-dioxido-1,2,3,4a,5,6,7,11b-octahydrobenzo[6,7]cyclohepta[1,2-e][1,2,4]thiadiazin-10-yl)picolinamide]
3 | 10 | 18 | CN1C(=N)N[C@]2(C)c3cc(NC(=O)c4ncc(F)cc4F)ccc3CCC[C@@H]2S1(=O)=O [Example 26, 3,5-difluoro-N-((4aS,11bR)-2-imino-3,11b-dimethyl-4,4-dioxido-1,2,3,4a,5,6,7,11b-octahydrobenzo[6,7]cyclohepta[1,2-e][1,2,4]thiadiazin-10-yl)picolinamide]
4 | 10 | 18 | COc1cc(Br)cnc1C(=O)Nc1ccc2c(c1)[C@@]1(C)NC(=N)N(C)S(=O)(=O)[C@H]1CCC2 [Example 27, 5-bromo-N-((4aS,11bR)-2-imino-3,11b-dimethyl-4,4-dioxido-1,2,3,4a,5,6,7,11b-octahydrobenzo[6,7]cyclohepta[1,2-e][1,2,4]thiadiazin-10-yl)-3-methoxypicolinamide]
5 | 7 | 18 | CN1C(=N)N[C@]2(C)c3cc(NC(=O)c4ccc(F)cn4)ccc3CCC[C@@H]2S1(=O)=O [Example 28, 5-fluoro-N-((4aS,11bR)-2-imino-3,11b-dimethyl-4,4-dioxido-1,2,3,4a,5,6,7,11b-octahydrobenzo[6,7]cyclohepta[1,2-e][1,2,4]thiadiazin-10-yl)picolinamide]
6 | 10 | 19 | Cc1cc(F)cnc1C(=O)Nc1ccc2c(c1)[C@@]1(C)NC(=N)N(C)S(=O)(=O)[C@H]1CCC2 [Example 31, 5-fluoro-N-((4aS,11bR)-2-imino-3,11b-dimethyl-4,4-dioxido-1,2,3,4a,5,6,7,11b-octahydrobenzo[6,7]cyclohepta[1,2-e][1,2,4]thiadiazin-10-yl)-3-methylpicolinamide]

Row | Compound | Ki [1] [nM] | Ki [2] [nM]
7 | CN1C(=N)N[C@]2(C)c3cc(NC(=O)c4ccc(OC(F)F)cn4)ccc3CCC[C@@H]2S1(=O)=O [Example 22, 5-(difluoromethoxy)-N-((4aS,11bR)-2-imino-3,11b-dimethyl-4,4-dioxido-1,2,3,4a,5,6,7,11b-octahydrobenzo[6,7]cyclohepta[1,2-e][1,2,4]thiadiazin-10-yl)picolinamide] | 90 | 10
8 | CN1C(=N)N[C@]2(C)c3cc(NC(=O)c4ccc(Cl)cn4)ccc3CCC[C@@H]2S1(=O)=O [Example 23, 5-chloro-N-((4aS,11bR)-2-imino-3,11b-dimethyl-4,4-dioxido-1,2,3,4a,5,6,7,11b-octahydrobenzo[6,7]cyclohepta[1,2-e][1,2,4]thiadiazin-10-yl)picolinamide] | 7 | 7
9 | CN1C(=N)N[C@]2(C)c3cc(NC(=O)c4ccc(OC(F)(F)F)cn4)ccc3CCC[C@@H]2S1(=O)=O [Example 29, N-((4aS,11bR)-2-imino-3,11b-dimethyl-4,4-dioxido-1,2,3,4a,5,6,7,11b-octahydrobenzo[6,7]cyclohepta[1,2-e][1,2,4]thiadiazin-10-yl)-5-(trifluoromethoxy)picolinamide] | 144 | 14
10 | CN1C(=N)N[C@]2(C)c3cc(NC(=O)c4ncc(C(F)(F)F)cc4Cl)ccc3CCC[C@@H]2S1(=O)=O [Example 30, 3-chloro-N-((4aS,11bR)-2-imino-3,11b-dimethyl-4,4-dioxido-1,2,3,4a,5,6,7,11b-octahydrobenzo[6,7]cyclohepta[1,2-e][1,2,4]thiadiazin-10-yl)-5-(trifluoromethyl)picolinamide] | 82 | 10
